Patent publication US4971967A, “Quinolinecarboxylic acid derivatives, antibacterial compositions and use” (Kanebo Ltd, priority 1989, dated 1990)
≈ marks a conversion by molar mass, not a printed value. Where a name gives a salt, the structure may show the parent alone. Read-outs that look alike come from different tables or passages of the source.

Key:
[1] = tested on: Pseudomonas aeruginosa E-2; assay: Antibacterial activity (MIC), P. aeruginosa E-2; assay type: cell-based; details: E2; Pseudomonas aeruginosa E-2, Gram -; read-out: Minimum inhibitory concentration (MIC)
Description: (§1) The compounds of the present invention (A, C, D, E, F, G, H, I, J, L, O and P) and the known compound (X) as reference were dissolved in 0.1 N aqueous sodium hydroxide to prepare a solution of 5000 μg/ml in concentration. The compounds of the present invention (B, K, M and N) and the known compound (Y) were dissolved in sterilized distilled water to prepare a solution of 5000 μg/ml in concentration. Each solution was diluted with sterilized distilled water to prepare a standard solution with a concentration of each test compound: 1000 μg/ml. The test was carried out by a method as appointed by Japan Society of Chemotherapy [cf. Chemotherapy, 29, 76-79 (1981)(TOKYO)].

[2] = tested on: Morganella morganii IFO 3848; assay: Antibacterial activity (MIC), Morganella morganii IFO 3848; assay type: cell-based; details: Morganella morganii, IFO3848, Morganella morganii IFO 3848, Gram -; read-out: Minimum inhibitory concentration (MIC)
Description: as §1

[3] = tested on: Citrobacter freundii NIHJ 10018-68; assay: Antibacterial activity (MIC), Citrobacter freundii NIHJ 10018-68; assay type: cell-based; details: Citrobacter freundii, NIHJ10018, Citrobacter freundii NIHJ 10018-68, Gram -; read-out: Minimum inhibitory concentration (MIC)
Description: as §1

[4] = tested on: Pseudomonas aeruginosa IFO 3445; assay: Antibacterial activity (MIC), P. aeruginosa IFO 3445; assay type: cell-based; details: Pseudomonas aeruginosa, IFO3445, Pseudomonas aeruginosa IFO 3445, Gram -; read-out: Minimum inhibitory concentration (MIC)
Description: as §1

[5] = tested on: Serratia marcescens IAM 1184; assay: Antibacterial activity (MIC), Serratia marcescens IAM 1184; assay type: cell-based; details: Serratia marcescens, IAM1184, Serratia marcescens IAM 1184, Gram -; read-out: Minimum inhibitory concentration (MIC)
Description: as §1

[6] = tested on: Pseudomonas aeruginosa NCTC 10490; assay: Antibacterial activity (MIC), P. aeruginosa NCTC 10490; assay type: cell-based; details: Pseudomonas aeruginosa, NCTC10490, Pseudomonas aeruginosa NCTC 10490, Gram -; read-out: Minimum inhibitory concentration (MIC)
Description: as §1

Enterobacter cloacae 963 = assay: Antibacterial activity (MIC), Enterobacter cloacae 963; assay type: cell-based; details: Enterobacter cloacae, 963, Enterobacter cloacae 963, Gram -; read-out: Minimum inhibitory concentration (MIC)
Description: as §1

[7] = tested on: Staphylococcus aureus IID 803; assay: Effect on treatment of general infectious disease, S. aureus IID 803 (Experiment 3); assay type: in vivo, ddY male mice infected with Staphylococcus aureus; details: IID803, 168 h, oral, 1 h after i.p. infection, 5.0×10^7 CFU/mouse, survival after one week
Description: Staphylococcus aureus IID 803 (5.0×10^7 CFU/mouse)
(§2) The test microorganisms were subjected to standing culture in Trypto-Soya Agar "Nissui" (made by Nissui Seiyaku K.K., Japan) at 37° C. for 16 to 18 hours. The culture was then diluted with PBS (Dulbecco's phosphate buffered saline) and mixed with an equivalent amount of 10% (w/v) Mucin (BACTO MUCIN BACTERIOLOGICAL, made by Difco Co.) to prepare a microorganism solution. The thus prepared microorganism solution (0.5 ml each) was intraperitoneally inoculated to ddY male mice (5 weeks age, weighing 25-28 g, 5 mice in each group), to infect the animals. One hour after the infection, the compound (A) or (J) of the present invention or the known compound (X) suspended in 1% (w/v) aqueous gum arabic or the known compound (Y) dissolved in sterilized distilled water was orally adiministered to mice.
(§3) The mice were daily observed for one week, and from the survival number of mice after one week, the 50% effective dose (ED50) was calculated by Weil method.

Proteus vulgaris OX-19 = assay: Antibacterial activity (MIC), Proteus vulgaris OX-19; assay type: cell-based; details: OX19; Proteus vulgaris OX-19, Gram -; read-out: Minimum inhibitory concentration (MIC)
Description: as §1

[8] = tested on: Bacillus subtilis ATCC 6633; assay: Antibacterial activity (MIC), Bacillus subtilis ATCC 6633; assay type: cell-based; details: Bacillus subtilis, ATCC6633, Bacillus subtilis ATCC 6633, Gram +; read-out: Minimum inhibitory concentration (MIC)
Description: as §1

[9] = tested on: Staphylococcus aureus IID 803; assay: Antibacterial activity (MIC), S. aureus IID 803; assay type: cell-based; details: IID803; Staphylococcus aureus IID 803, Gram +; read-out: Minimum inhibitory concentration (MIC)
Description: as §1

Shigella sonnei EW-33 = assay: Antibacterial activity (MIC), Shigella sonnei EW-33; assay type: cell-based; details: Shigella sonnei, EW33, Shigella sonnei EW-33, Gram -; read-out: Minimum inhibitory concentration (MIC)
Description: as §1

[10] = tested on: Klebsiella pneumoniae PCI-602; assay: Antibacterial activity (MIC), Klebsiella pneumoniae PCI-602; assay type: cell-based
Description: as §1

[11] = tested on: Proteus mirabilis IFO 3849; assay: Antibacterial activity (MIC), Proteus mirabilis IFO 3849; assay type: cell-based; details: IFO3849; Proteus mirabilis IFO 3849, Gram -; read-out: Minimum inhibitory concentration (MIC)
Description: as §1

[12] = tested on: Micrococcus luteus ATCC 9341; assay: Antibacterial activity (MIC), Micrococcus luteus ATCC 9341; assay type: cell-based; details: ATCC9341; Micrococcus luteus ATCC 9341, Gram +; read-out: Minimum inhibitory concentration (MIC)
Description: as §1

Escherichia coli KC-14 = assay: Antibacterial activity (MIC), E. coli KC-14; assay type: cell-based; details: KC14; Escherichia coli KC-14, Gram -; read-out: Minimum inhibitory concentration (MIC)
Description: as §1

[13] = tested on: clinically isolated methicillin resistant Staphylococcus aureus; assay: MIC against clinically isolated methicillin resistant Staphylococcus aureus; assay type: cell-based; details: 54 strains; for MIC50: minimum concentration for inhibiting growth of the strains by 50%; for MIC90: minimum concentration for inhibiting growth of the strains by 90%
Description: The compounds (A) and (J) of the present invention and the known compound (X) were dissolved in 0.1 N aqueous sodium hydroxide, and the known compound (Y) in sterilized distilled water, to prepare a solution of 5000 μg/ml in concentration each. The above solutions were then diluted with sterilized distilled water to prepare a standard solution with a concentration of the test compound: 1000 μg/ml each. The test was carried out by a method appointed by Japan Society of Chemotherapy (ibidem) to measure minimum inhibitory concentration (MIC) against 54 strains of clinically isolated methicillin resistant Staphylococcus aureus, from which there were calculated a range of MIC (MICrange) of the test compound against these resistant strains, a minimum concentration for inhibiting the growth of the strains by 50% (MIC50) and a minimum concentration for inhibiting the growth of the strains by 90% (MIC90).

[14] = tested on: Enterobacter aerogenes ATCC 13048; assay: Antibacterial activity (MIC), Enterobacter aerogenes ATCC 13048; assay type: cell-based; details: Klebsiella aerogenes, ATCC13048; Enterobacter aerogenes ATCC 13048, Gram -; read-out: Minimum inhibitory concentration (MIC)
Description: as §1

[15] = tested on: Escherichia coli NIHJ JC-2; assay: Antibacterial activity (MIC), E. coli NIHJ JC-2; assay type: cell-based; details: NIHJJC2; Escherichia coli NIHJ JC-2, Gram -; read-out: Minimum inhibitory concentration (MIC)
Description: as §1

[16] = tested on: Streptococcus faecalis IID 682; assay: Antibacterial activity (MIC), Streptococcus faecalis IID 682; assay type: cell-based; details: Enterococcus faecalis, IID682, Streptococcus faecalis IID 682, Gram +; read-out: Minimum inhibitory concentration (MIC)
Description: as §1

[17] = tested on: Salmonella typhimurium IID 971; assay: Antibacterial activity (MIC), Salmonella typhimurium IID 971; assay type: cell-based; details: Salmonella enterica; Salmonella typhimurium IID 971, Gram -; read-out: Minimum inhibitory concentration (MIC)
Description: as §1

[18] = tested on: Staphylococcus epidermidis IAM-1296; assay: Antibacterial activity (MIC), S. epidermidis IAM-1296; assay type: cell-based; details: Staphylococcus epidermidis, IAM1296, Staphylococcus epidermidis IAM-1296, Gram +; read-out: Minimum inhibitory concentration (MIC)
Description: as §1

[19] = tested on: Staphylococcus aureus FDA 209P JC-1; assay: Antibacterial activity (MIC), S. aureus FDA 209P JC-1; assay type: cell-based; details: FDA209P; Staphylococcus aureus FDA 209P JC-1, Gram +; read-out: Minimum inhibitory concentration (MIC)
Description: as §1

[20] = tested on: Acinetobacter calcoaceticus AC 54; assay: Antibacterial activity (MIC), Acinetobacter calcoaceticus AC 54; assay type: cell-based; details: AC54; Acinetobacter calcoaceticus AC 54, Gram -; read-out: Minimum inhibitory concentration (MIC)
Description: as §1

[21] = tested on: Pseudomonas aeruginosa E-2; assay: Effect on treatment of general infectious disease, P. aeruginosa E-2 (Experiment 3); assay type: in vivo, ddY male mice infected with Pseudomonas aeruginosa; details: E2, 168 h, oral, 1 h after i.p. infection, 3.1×10^4 CFU/mouse, survival after one week
Description: Pseudomonas aeruginosa E-2 (3.1×10^4 CFU/mouse)
as §2, §3

SMILES | MIC [1] | MIC [2] | MIC [3] | MIC [4] | MIC [5] | MIC [6] | MIC (Enterobacter cloacae 963) | ED50 [7] | MIC (Proteus vulgaris OX-19) | MIC [8] | MIC [9] | MIC (Shigella sonnei EW-33) | MIC [11] | MIC [12] | MIC (Escherichia coli KC-14) | MIC [13] | MIC50 [13] | MIC90 [13] | MIC [14] | MIC [15] | further results
CC1COc2c(N3CCN(C)CC3)c(F)cc3c(=O)c(C(=O)O)cn1c23 (stereo not drawn) [Compound (X), 9-Fluoro-3-methyl-10-(4-methyl-1-piperazinyl)-7-oxo-2,3-dihydro-7H-pyrido[1,2,3-de][1,4]-benzoxazine-6-carboxylic acid, reference compound] | 1.56 µg/mL (≈ 4.32 µM) | 0.1 µg/mL (≈ 0.277 µM) | 0.39 µg/mL (≈ 1.08 µM) | 1.56 µg/mL (≈ 4.32 µM) | 0.78 µg/mL (≈ 2.16 µM) | 1.56 µg/mL (≈ 4.32 µM) | 0.2 µg/mL (≈ 0.553 µM) | 14 mg/kg | 0.05 µg/mL (≈ 0.138 µM) | 0.1 µg/mL (≈ 0.277 µM) | 0.39 µg/mL (≈ 1.08 µM) | 0.05 µg/mL (≈ 0.138 µM) | 0.39 µg/mL (≈ 1.08 µM) | 3.13 µg/mL (≈ 8.66 µM) | 0.1 µg/mL (≈ 0.277 µM) | 0.39 to 1.56 µg/mL (≈ 1.08 to 4.32 µM) | 0.78 µg/mL (≈ 2.16 µM) | 1.56 µg/mL (≈ 4.32 µM) | 0.1 µg/mL (≈ 0.277 µM) | 0.1 µg/mL (≈ 0.277 µM) | MIC ([10]; PCI602, Klebsiella pneumoniae PCI-602, Gram -, read-out: Minimum inhibitory concentration (MIC)): 0.05 µg/mL (≈ 0.138 µM); MIC [16]: 1.56 µg/mL (≈ 4.32 µM); MIC [17]: 0.05 µg/mL (≈ 0.138 µM); MIC [18]: 0.78 µg/mL (≈ 2.16 µM); MIC [19]: 0.39 µg/mL (≈ 1.08 µM); MIC [20]: 0.39 µg/mL (≈ 1.08 µM); ED50 [21]: 14 mg/kg
CN1CCN(c2c(F)cc3c(=O)c(C(=O)O)c4scc5n4c3c2OC5)CC1 [Compound (Y), 9,1-Epoxymethano-7-fluoro-8-(4-methyl-1-piperazinyl)-5-oxo-5H-thiazolo[3,2-a]quinoline-4-carboxylic acid hydrochloride, reference compound] | 0.78 µg/mL | 0.1 µg/mL | 0.2 µg/mL | 1.56 µg/mL | 0.39 µg/mL | 0.78 µg/mL | 0.1 µg/mL | 11.7 mg/kg | 0.05 µg/mL | 0.1 µg/mL | 0.2 µg/mL | 0.05 µg/mL | 0.2 µg/mL | 1.56 µg/mL | 0.1 µg/mL | 0.05 to 0.39 µg/mL | 0.1 µg/mL | 0.2 µg/mL | 0.1 µg/mL | 0.1 µg/mL | MIC ([10]; Klebsiella pneumoniae, PCI602, read-out: Minimum inhibitory concentration (MIC)): 0.025 µg/mL; MIC [16]: 0.78 µg/mL; MIC [17]: 0.05 µg/mL; MIC [18]: 0.39 µg/mL; MIC [19]: 0.2 µg/mL; MIC [20]: 0.2 µg/mL; ED50 [21]: 11.7 mg/kg
